In patent US20240023546A1, “TRIGEMINAL CUE FOR WILDLIFE REPELLENTS” (The United States of America, as Represented by the …, priority 2022, published 2024):

Tested on: cottontail rabbits
Assay: no-choice feeding experiment, repellency of cottontail rabbits from treated whole oats
Format: in vivo
Source text: As used herein, the term “repellency” means the percent decrease in consumption (or occupancy) of a treated substrate relative to an untreated substrate. […] These values can be used to define a range, such as 50% to 75%, or 75% to 85%, or 25% to 50% decrease in consumption (or occupancy) of a treated substrate relative to an untreated substrate.
We conducted one no-choice feeding experiment for each unique combination of the trigeminal nerve irritant (methyl anthranilate) and the animal repellent (anthraquinone). For each feeding experiment, we used 24-30 cottontail rabbits to evaluate the efficacy of our repellent formulations. For each experiment, we offered untreated food for up to three days of the pretreatment and repellent-treated food during the 1-day test. For each experiment, our three test treatments (n=8−10 rabbits per treatment group) included food treated with (1) the methyl anthranilate alone, (2) the anthraquinone alone and (3) the combination of the methyl anthranilate and the anthraquinone.

Compound	% Repellency (rabbit, in vivo) [%]	% Repellency (whole oats treated with 5000 ppm MA alone, 1-day no-choice test) [%]	% Repellency (whole oats treated with 5000 ppm MA alone, 1-day no-choice test, listed as MA) [%]	% Repellency (whole oats treated with 10,000 ppm MA alone, 1-day no-choice test) [%]
O=C1c2ccccc2C(=O)c2ccccc21 [anthraquinone, 9,10-anthraquinone]	36	–	–	–
COC(=O)c1ccccc1N [methyl anthranilate]	–	6	6	62
